Measurements from patent US4929751A, “Vinyl tricarbonyl compounds and methods of making the same” (Yale University, priority 1987, dated 1990).
Like-named read-outs stand apart in the source and are kept apart here.

Tests used:
Format in all cases: cell-based
[1] = tested on: H522 (nonsmall cell lung cancer); test: growth inhibition of tumor cell line; details: Homo sapiens, NCI-H522
Text: (§1) t-Butyl 2,3-dioxo-pent-4-enoate hydrate (A) was contacted with various cell lines as indicated on Table 1 hereinbelow in the column designated as "CELL" or "TUMOR". […]
(§2) Table 1 reports and illustrates the results obtained by testing t-butyl 2,3-dioxo-pent-4-enoate hydrate. The concentration of this compound found to inhibit the growth of each cell line listed under "CELL" by 50% is reported under "LOG(IC50)" as the logarithm of the concentration. The units of concentration are either molarity in which case an "M" is shown in parentheses next to the LOG(IC50) label, or micrograms per ml, in which case a "W" (for weight) is shown in parenthesis. The cell line names are grouped by disease type and the disease type names are listed on the far left.

MOLT-4 (LEU) = test: growth inhibition of tumor cell line; details: Homo sapiens, status R (not acceptable test)
Text: as §1, §2

[2] = tested on: MCF-7/ADR (resistant breast cancer); test: growth inhibition of tumor cell line; details: Homo sapiens
Text: as §1, §2

[3] = tested on: TE-671 (central nervous system); test: growth inhibition of tumor cell line; details: Homo sapiens
Text: as §1, §2

P388/ADR = test: growth inhibition of tumor cell line; details: Mus musculus
Text: as §1, §2

[4] = tested on: H460 (nonsmall cell lung cancer); test: growth inhibition of tumor cell line; details: Homo sapiens, NCI-H460, logarithm of the concentration inhibiting growth by 50%
Text: as §1, §2

A704 (renal) = test: growth inhibition of tumor cell line; details: Homo sapiens
Text: as §1, §2

SK-MEL5 (melanoma) = test: growth inhibition of tumor cell line; details: Homo sapiens
Text: as §1, §2

OVCAR-5 (ovarian) = test: growth inhibition of tumor cell line; details: for IC50: Homo sapiens, OVCAR-5
Text: as §1
(§3) As described below, the data in Table 1 serve to display the testing results on disease category selectivity in a bar graph format. Bars projecting to the right of the reference (vertical line of asterisks) indicate greater than average sensitivity to the test compound. Each bar represents one power of ten in sensitivity, so that the results for OVCAR-5 (ovarian tumor) indicate a remarkable […] increase in sensitivity over the reference test.
as §2

PS cell lines = test: disease category selectivity
Text: as §3, §2
(§4) The graph on the right depicts the data on the left in a format called a "MEAN GRAPH" which is designed to aid in the identification of differential growth inhibition. […] The interest in using this concept of differential growth inhibition as a criterion of activity in the screening system is to encourage the discovery of new types of anticancer agents having greater tissue specificity than cancer chemotherapeutic agents in use today.
(§5) The idea for the Mean Graph resulted from trying to detect differential growth inhibition in a bar graph format Experimentation led to a graph centered at the arithmetic mean (ML) of the logarithm of the IC50'a of all the cell line responses measured for a compound. The Mean Graph is constructed around a vertical reference (indicating ML) by projecting bars to the right or to the left. […] The lengths of the bars are proportional to the differences between the logarithms of the specific cell line IC50's and the overall mean value ML. These lengths represent differences in logarithms which are equivalent to the ratios of the specific IC50's to the geometric mean of all the IC50's. Therefore, a useful property of the Mean Graph format is the ability to compare patterns derived from IC50's measured in different units, e.g, micrograms per ml and molarity. The units cancel in the division process.
(§6) Differential growth inhibition is depicted as a bar projecting some distance to the right of ML. A bar projecting three log units to the right of ML, for example, would reflect a cellular sensitivity 1000 times greater than ML. While any degree of sensitivity greater than ML might theoretically be considered differential growth inhibition, in practice one must consider the experimental error in the measurement and at what point the degree of differential growth inhibition becomes meaningful in biological terms. The three values listed a the bottom of the graph provide the value of ML as "AVE LOG(IC50)", the greatest difference from ML as "DELTA" and the difference between the least sensitive cell line and the most sensitive cell line as the "RANGE".

[5] = tested on: resistant breast cancer cell lines; test: disease category selectivity; details: RESISTB
Text: as §3, §2, §4, §5, §6

colon cell lines = test: disease category selectivity
Text: as §3, §2, §4, §5, §6

renal cell lines = test: disease category selectivity
Text: as §3, §2, §4, §5, §6

[6] = tested on: RESISTL (resistant lung cancer) cell lines; test: disease category selectivity
Text: as §3, §2, §4, §5, §6

ovarian cell lines = test: disease category selectivity
Text: as §3, §2, §4, §5, §6

breast cell lines = test: disease category selectivity
Text: as §3, §2, §4, §5, §6

[7] = tested on: central nervous system cell lines; test: disease category selectivity; details: CNS
Text: as §3, §2, §4, §5, §6

leukemia cell lines = test: disease category selectivity; details: LEUK
Text: as §3, §2, §4, §5, §6

melanoma cell lines = test: disease category selectivity; details: MEL
Text: as §3, §2, §4, §5, §6

[8] = tested on: small cell lung cancer cell lines; test: disease category selectivity; details: SCLC
Text: as §3, §2, §4, §5, §6

[9] = tested on: nonsmall cell lung cancer cell lines; test: disease category selectivity; details: NSCLC
Text: as §3, §2, §4, §5, §6

[10] = logarithm of the concentration inhibiting growth by 50%, read-out: LOG(IC50) (converted)
[11] = mean LOG(IC50) of category, 1 cell line, read-out: MEAN CAT (converted)
[12] = mean LOG(IC50) of category, 4 cell lines, read-out: MEAN CAT (converted)
[13] = mean LOG(IC50) of category, 5 cell lines, read-out: MEAN CAT (converted)

- IC50 ([1]; H522, logarithm of the concentration inhibiting growth by 50%, read-out: LOG(IC50) (converted)): 15.8 µM
- IC50 ([1]; read-out: IC-50 MEAN): 14.3 µM
- IC90 (MOLT-4 (LEU)): 244 µM
- IC50 ([2]; NCI/ADR-RES, MCF-7/ADR, read-out: IC-50 MEAN): 96 µM
- IC50 ([2]; MCF-7/A, logarithm of the concentration inhibiting growth by 50%, read-out: LOG(IC50) (converted)): 100 µM
- IC90 [3]: 231 µM
- IC50 [3, 10]: 126 µM
- IC50 ([3]; read-out: IC-50 MEAN): 114 µM
- IC90 (P388/ADR): 244 µM
- IC50 (P388/ADR; P388/AD, logarithm of the concentration inhibiting growth by 50%, read-out: LOG(IC50) (converted)): 126 µM
- IC50 (P388/ADR; read-out: IC-50 MEAN): 118 µM
- IC50 [4]: > 251 µM
- IC90 (A704 (renal)): 229 µM
- IC50 (A704 (renal); [10]): 50.1 µM
- IC50 (A704 (renal); read-out: IC-50 MEAN): 46.6 µM
- IC90 (SK-MEL5 (melanoma); SK-MEL-5): 222 µM
- IC50 (SK-MEL5 (melanoma); SK-MEL-5, logarithm of the concentration inhibiting growth by 50%, read-out: LOG(IC50) (converted)): 63.1 µM
- IC50 (SK-MEL5 (melanoma); SK-MEL-5, read-out: IC-50 MEAN): 74.2 µM
- IC50 (OVCAR-5 (ovarian); read-out: IC-50 MEAN): 2.01 µM
- IC50 (OVCAR-5 (ovarian); [10]): 1.26 µM
- IC50 (PS cell lines; [11]): 100 µM
- IC50 [5, 11]: 100 µM
- IC50 (colon cell lines; [12]): 63.1 µM
- IC50 (renal cell lines; mean LOG(IC50) of category, 3 cell lines, read-out: MEAN CAT (converted)): 79.4 µM
- IC50 [6, 11]: 126 µM
- IC50 (ovarian cell lines; [13]): 50.1 µM
- IC50 (breast cell lines; [11]): 100 µM
- IC50 [7, 12]: 100 µM
- IC50 (leukemia cell lines; mean LOG(IC50) of category, 2 cell lines, read-out: MEAN CAT (converted)): 31.6 µM
- IC50 (melanoma cell lines; [13]): 79.4 µM
- IC50 [8, 13]: 79.4 µM
- IC50 ([9]; mean LOG(IC50) of category, 10 cell lines, read-out: MEAN CAT (converted)): 79.4 µM
SMILES: C=CC(=O)C(O)(O)C(=O)OC(C)(C)C [t-butyl 2,3-dioxo-pent-4-enoate hydrate]
- effectiveness against ovarian cell line OVCAR-5 (OVCAR-5 (ovarian); in words): particularly effective
- DIFF CAT (PS cell lines; difference from mean): 0.1
- DIFF CAT ([5]; difference from mean): 0.1
- DIFF CAT (colon cell lines; difference from mean): -0.1
- DIFF CAT (renal cell lines; difference from mean): 0.1
- DIFF CAT ([6]; difference from mean): 0.2
- DIFF CAT (ovarian cell lines; difference from mean): -0.2
- DIFF CAT (breast cell lines; difference from mean): 0.1
- DIFF CAT ([7]; difference from mean): 0.2
- DIFF CAT (leukemia cell lines; difference from mean): -0.4
- DIFF CAT (melanoma cell lines; difference from mean): 0
- DIFF CAT ([8]; difference from mean): 0
- DIFF CAT ([9]; difference from mean): 0
